The text below walks through data of PubChem BioAssay (NCI).

Several values for one entry are separate records, joined by “and”; a condition that tells them apart may be missing. Equal entries are not always repeated.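 Exposure lasted 48 hours, with cells grown in 96-well plates and compounds tested at five concentrations. At the GI50, growth is halved. At the TGI there is no net growth.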 Bounds are passed on as bounds.

The test system of one assay is TK-10 renal. Put plainly: inhibition of tumour cell growth, NCI panel, 48 h.
`CN(CCCNC(=O)Cc1ccc2ccc3cccc4ccc1c2c34)CCCNc1cc(-c2ccc3ccccc3c2)nc2ccccc12`: the GI50 is 1.47 µM and the TGI stood at 3.02 µM.

Consider `CCOC(=O)c1c[nH]c2oc(/C=N/N3CC(CN4CCOCC4)OC3=O)cc2c1=O` (stereo unspecified), for which the TGI is > 100 µM.

Consider `O=C(Nc1ccc(-n2cc(-c3ccncc3)c(-c3ccc(Cl)c(O)c3)n2)cc1)Nc1ccc(Cl)c(C(F)(F)F)c1`, for which the GI50 is 3.64 µM and the TGI stood at 15.1 µM.

For `CC1CCC(=O)C(C(=O)CC2CC(=O)NC(=O)C2)C1` (stereo unspecified), the TGI was > 100 µM.

For `CC(C)N=c1cc2n(-c3ccc(Cl)cc3)c3ccccc3nc-2cc1Nc1ccc(Cl)cc1`, the TGI is > 100 µM.

Regarding `O=C(Nc1cc(Cl)ccc1Cl)C(=O)C(c1cnc2ccccc2n1)[N+](=O)[O-]` (stereo unspecified), the TGI was > 100 µM.

For the compound `COC(=O)CCC(=O)CC1CC(=O)C2CCCN12` (stereo unspecified), the TGI was > 100 µM.

In the case of `Cc1cc(NS(=O)(=O)c2ccc(Nc3c4ccccc4nc4c(C(=O)NCCN(C)C)cccc34)cc2)no1`, the TGI was > 100 µM.

Take `CCOC(=N)CC(=O)Nc1cccc(C)c1C`: the TGI was > 100 µM.

The subject of a further assay is MCF7 breast. Put plainly: inhibition of tumour cell growth, NCI panel, 48 h.
For the compound `CN(CCCNC(=O)Cc1ccc2ccc3cccc4ccc1c2c34)CCCNc1cc(-c2ccc3ccccc3c2)nc2ccccc12`, the GI50 is 0.587 µM and the TGI came out at 2.08 µM.

Take `CCOC(=O)c1c[nH]c2oc(/C=N/N3CC(CN4CCOCC4)OC3=O)cc2c1=O` (stereo unspecified): the TGI was > 100 µM.

Regarding `O=C(Nc1ccc(-n2cc(-c3ccncc3)c(-c3ccc(Cl)c(O)c3)n2)cc1)Nc1ccc(Cl)c(C(F)(F)F)c1`, the GI50 is 2.12 µM and the TGI was 5.65 µM.

As for `CC1CCC(=O)C(C(=O)CC2CC(=O)NC(=O)C2)C1` (stereo unspecified), the TGI is > 100 µM.

In the case of `CC(C)N=c1cc2n(-c3ccc(Cl)cc3)c3ccccc3nc-2cc1Nc1ccc(Cl)cc1`, the GI50 was 1.28 µM and 2.36 µM; the TGI is > 100 µM.

The test system of a further assay is SF-268 CNS. Put plainly: inhibition of tumour cell growth, NCI panel, 48 h.
Consider `CN(CCCNC(=O)Cc1ccc2ccc3cccc4ccc1c2c34)CCCNc1cc(-c2ccc3ccccc3c2)nc2ccccc12`, for which the GI50 was 1.43 µM and the TGI was determined as 2.91 µM.

On to `CCOC(=O)c1c[nH]c2oc(/C=N/N3CC(CN4CCOCC4)OC3=O)cc2c1=O` (stereo unspecified), for which the TGI was > 100 µM.

For `O=C(Nc1ccc(-n2cc(-c3ccncc3)c(-c3ccc(Cl)c(O)c3)n2)cc1)Nc1ccc(Cl)c(C(F)(F)F)c1`, the GI50 is 1.65 µM and the TGI is 3.87 µM.

For the compound `CC1CCC(=O)C(C(=O)CC2CC(=O)NC(=O)C2)C1` (stereo unspecified), the TGI is > 100 µM.

With `CC(C)N=c1cc2n(-c3ccc(Cl)cc3)c3ccccc3nc-2cc1Nc1ccc(Cl)cc1`, the GI50 was 1.73 µM and the TGI was > 50 µM.

Take `O=C(Nc1cc(Cl)ccc1Cl)C(=O)C(c1cnc2ccccc2n1)[N+](=O)[O-]` (stereo unspecified): the TGI was > 100 µM.

Consider `COC(=O)CCC(=O)CC1CC(=O)C2CCCN12` (stereo unspecified), for which the TGI was > 100 µM.

In turn, `Cc1cc(NS(=O)(=O)c2ccc(Nc3c4ccccc4nc4c(C(=O)NCCN(C)C)cccc34)cc2)no1` gave a TGI of 16.4 µM.

Consider `CCOC(=N)CC(=O)Nc1cccc(C)c1C`, for which the TGI was > 100 µM.

In a further assay the test system is 786-0 renal. Nature of the assay: inhibition of tumour cell growth, NCI panel, 48 h.
In the case of `CN(CCCNC(=O)Cc1ccc2ccc3cccc4ccc1c2c34)CCCNc1cc(-c2ccc3ccccc3c2)nc2ccccc12`, the GI50 is 1.53 µM and the TGI is 2.97 µM.

Consider `CCOC(=O)c1c[nH]c2oc(/C=N/N3CC(CN4CCOCC4)OC3=O)cc2c1=O` (stereo unspecified), for which the TGI was > 100 µM.

As to `O=C(Nc1ccc(-n2cc(-c3ccncc3)c(-c3ccc(Cl)c(O)c3)n2)cc1)Nc1ccc(Cl)c(C(F)(F)F)c1`, the GI50 is 1.22 µM and the TGI worked out at 3.11 µM.

`CC1CCC(=O)C(C(=O)CC2CC(=O)NC(=O)C2)C1` (stereo unspecified): the TGI was > 100 µM.

Regarding `CC(C)N=c1cc2n(-c3ccc(Cl)cc3)c3ccccc3nc-2cc1Nc1ccc(Cl)cc1`, the GI50 is 1.52 µM and 3.12 µM; the TGI is > 100 µM.

With `O=C(Nc1cc(Cl)ccc1Cl)C(=O)C(c1cnc2ccccc2n1)[N+](=O)[O-]` (stereo unspecified), the TGI is > 100 µM.

Turning to `COC(=O)CCC(=O)CC1CC(=O)C2CCCN12` (stereo unspecified), the TGI was > 100 µM.

The compound `Cc1cc(NS(=O)(=O)c2ccc(Nc3c4ccccc4nc4c(C(=O)NCCN(C)C)cccc34)cc2)no1` came in with a TGI of 19.7 µM.

Turning to `CCOC(=N)CC(=O)Nc1cccc(C)c1C`, the TGI was > 100 µM.

Another assay has as its system SF-295 CNS. Nature of the assay: inhibition of tumour cell growth, NCI panel, 48 h.
For `CCOC(=O)c1c[nH]c2oc(/C=N/N3CC(CN4CCOCC4)OC3=O)cc2c1=O` (stereo unspecified), the TGI was > 100 µM.

Take `O=C(Nc1ccc(-n2cc(-c3ccncc3)c(-c3ccc(Cl)c(O)c3)n2)cc1)Nc1ccc(Cl)c(C(F)(F)F)c1`: the GI50 was 1.26 µM and the TGI was found to be 2.86 µM.

For `CC1CCC(=O)C(C(=O)CC2CC(=O)NC(=O)C2)C1` (stereo unspecified), the TGI is > 100 µM.

In the case of `CC(C)N=c1cc2n(-c3ccc(Cl)cc3)c3ccccc3nc-2cc1Nc1ccc(Cl)cc1`, the GI50 is 1.36 µM and the TGI is > 50 µM.

Regarding `O=C(Nc1cc(Cl)ccc1Cl)C(=O)C(c1cnc2ccccc2n1)[N+](=O)[O-]` (stereo unspecified), the TGI is > 100 µM.

Regarding `COC(=O)CCC(=O)CC1CC(=O)C2CCCN12` (stereo unspecified), the TGI was > 100 µM.

`Cc1cc(NS(=O)(=O)c2ccc(Nc3c4ccccc4nc4c(C(=O)NCCN(C)C)cccc34)cc2)no1` showed a TGI of 47.5 µM.

As to `CCOC(=N)CC(=O)Nc1cccc(C)c1C`, the TGI was > 100 µM.

Another assay has as its system SK-MEL-28 melanoma. Put plainly: inhibition of tumour cell growth, NCI panel, 48 h.
Take `CN(CCCNC(=O)Cc1ccc2ccc3cccc4ccc1c2c34)CCCNc1cc(-c2ccc3ccccc3c2)nc2ccccc12`: the GI50 was 1.91 µM and the TGI is 3.32 µM.

As to `CCOC(=O)c1c[nH]c2oc(/C=N/N3CC(CN4CCOCC4)OC3=O)cc2c1=O` (stereo unspecified), the TGI is > 100 µM.

For `O=C(Nc1ccc(-n2cc(-c3ccncc3)c(-c3ccc(Cl)c(O)c3)n2)cc1)Nc1ccc(Cl)c(C(F)(F)F)c1`, the GI50 is 1.63 µM and the TGI stood at 3.45 µM.

Consider `CC1CCC(=O)C(C(=O)CC2CC(=O)NC(=O)C2)C1` (stereo unspecified), for which the TGI was > 100 µM.

Turning to `CC(C)N=c1cc2n(-c3ccc(Cl)cc3)c3ccccc3nc-2cc1Nc1ccc(Cl)cc1`, the GI50 is > 50 µM and the TGI is > 50 µM.

Regarding `O=C(Nc1cc(Cl)ccc1Cl)C(=O)C(c1cnc2ccccc2n1)[N+](=O)[O-]` (stereo unspecified), the TGI was > 100 µM.

Regarding `COC(=O)CCC(=O)CC1CC(=O)C2CCCN12` (stereo unspecified), the TGI is > 100 µM.

The compound `Cc1cc(NS(=O)(=O)c2ccc(Nc3c4ccccc4nc4c(C(=O)NCCN(C)C)cccc34)cc2)no1` displayed a TGI of 48.8 µM.

As for `CCOC(=N)CC(=O)Nc1cccc(C)c1C`, the TGI is > 100 µM.

In another assay the test system is NCI-H522 lung. Nature of the assay: inhibition of tumour cell growth, NCI panel, 48 h.
`O=C(Nc1cc(Cl)ccc1Cl)C(=O)C(c1cnc2ccccc2n1)[N+](=O)[O-]` (stereo unspecified): the TGI was > 100 µM.

`COC(=O)CCC(=O)CC1CC(=O)C2CCCN12` (stereo unspecified): the TGI was > 100 µM.

For the compound `Cc1cc(NS(=O)(=O)c2ccc(Nc3c4ccccc4nc4c(C(=O)NCCN(C)C)cccc34)cc2)no1`, the TGI turned out to be 4.56 µM.

For `CCOC(=N)CC(=O)Nc1cccc(C)c1C`, the TGI is > 100 µM.

Another assay deals with IGROV1 ovarian. Put plainly: inhibition of tumour cell growth, NCI panel, 48 h.
In the case of `CN(CCCNC(=O)Cc1ccc2ccc3cccc4ccc1c2c34)CCCNc1cc(-c2ccc3ccccc3c2)nc2ccccc12`, the GI50 is 1.7 µM and the TGI came to 3.58 µM.

Take `CCOC(=O)c1c[nH]c2oc(/C=N/N3CC(CN4CCOCC4)OC3=O)cc2c1=O` (stereo unspecified): the TGI was > 100 µM.

`O=C(Nc1ccc(-n2cc(-c3ccncc3)c(-c3ccc(Cl)c(O)c3)n2)cc1)Nc1ccc(Cl)c(C(F)(F)F)c1`: the GI50 is 2.29 µM and the TGI was 4.96 µM.

Consider `CC1CCC(=O)C(C(=O)CC2CC(=O)NC(=O)C2)C1` (stereo unspecified), for which the TGI was > 100 µM.

For the compound `CC(C)N=c1cc2n(-c3ccc(Cl)cc3)c3ccccc3nc-2cc1Nc1ccc(Cl)cc1`, the GI50 was 0.586 µM and 0.296 µM; the TGI was > 50 µM.

Consider `O=C(Nc1cc(Cl)ccc1Cl)C(=O)C(c1cnc2ccccc2n1)[N+](=O)[O-]` (stereo unspecified), for which the TGI was > 100 µM.

On to `COC(=O)CCC(=O)CC1CC(=O)C2CCCN12` (stereo unspecified), for which the TGI is > 100 µM.

As to `Cc1cc(NS(=O)(=O)c2ccc(Nc3c4ccccc4nc4c(C(=O)NCCN(C)C)cccc34)cc2)no1`, the TGI was determined as 22.1 µM.

For the compound `CCOC(=N)CC(=O)Nc1cccc(C)c1C`, the TGI was > 100 µM.

In the next assay the test system is SK-MEL-5 melanoma. Put plainly: inhibition of tumour cell growth, NCI panel, 48 h.
Regarding `CN(CCCNC(=O)Cc1ccc2ccc3cccc4ccc1c2c34)CCCNc1cc(-c2ccc3ccccc3c2)nc2ccccc12`, the GI50 is 1.64 µM and the TGI stood at 3.01 µM.

Take `CCOC(=O)c1c[nH]c2oc(/C=N/N3CC(CN4CCOCC4)OC3=O)cc2c1=O` (stereo unspecified): the TGI was > 100 µM.

Consider `O=C(Nc1ccc(-n2cc(-c3ccncc3)c(-c3ccc(Cl)c(O)c3)n2)cc1)Nc1ccc(Cl)c(C(F)(F)F)c1`, for which the GI50 is 1.53 µM and the TGI turned out to be 2.95 µM.

As for `CC1CCC(=O)C(C(=O)CC2CC(=O)NC(=O)C2)C1` (stereo unspecified), the TGI was > 100 µM.

`CC(C)N=c1cc2n(-c3ccc(Cl)cc3)c3ccccc3nc-2cc1Nc1ccc(Cl)cc1`: the GI50 is 0.634 µM and 1.28 µM; the TGI is 1.26 µM and 2.59 µM.

In the case of `O=C(Nc1cc(Cl)ccc1Cl)C(=O)C(c1cnc2ccccc2n1)[N+](=O)[O-]` (stereo unspecified), the TGI is > 100 µM.

With `COC(=O)CCC(=O)CC1CC(=O)C2CCCN12` (stereo unspecified), the TGI is > 100 µM.

`Cc1cc(NS(=O)(=O)c2ccc(Nc3c4ccccc4nc4c(C(=O)NCCN(C)C)cccc34)cc2)no1` showed a TGI of 11.8 µM.

For the compound `CCOC(=N)CC(=O)Nc1cccc(C)c1C`, the TGI was > 100 µM.

The next assay has as its system LOX IMVI melanoma. Put plainly: inhibition of tumour cell growth, NCI panel, 48 h.
As for `CCOC(=O)c1c[nH]c2oc(/C=N/N3CC(CN4CCOCC4)OC3=O)cc2c1=O` (stereo unspecified), the TGI was > 100 µM.

For `O=C(Nc1ccc(-n2cc(-c3ccncc3)c(-c3ccc(Cl)c(O)c3)n2)cc1)Nc1ccc(Cl)c(C(F)(F)F)c1`, the GI50 was 1.44 µM and the TGI amounted to 2.75 µM.

`CC1CCC(=O)C(C(=O)CC2CC(=O)NC(=O)C2)C1` (stereo unspecified): the TGI was > 100 µM.

As to `O=C(Nc1cc(Cl)ccc1Cl)C(=O)C(c1cnc2ccccc2n1)[N+](=O)[O-]` (stereo unspecified), the TGI is > 100 µM.

As to `COC(=O)CCC(=O)CC1CC(=O)C2CCCN12` (stereo unspecified), the TGI is > 100 µM.

For `Cc1cc(NS(=O)(=O)c2ccc(Nc3c4ccccc4nc4c(C(=O)NCCN(C)C)cccc34)cc2)no1`, the TGI came out at 31.3 µM.

Turning to `CCOC(=N)CC(=O)Nc1cccc(C)c1C`, the TGI is > 100 µM.
